Measured values: the OligoGym collection
HELM strings list units from the 5' end as sugar, base in round brackets, then linkage (d deoxyribose, r ribose, m 2'-O-methyl, p phosphodiester). Strings are as the collection lists them; they lack the last nucleoside at the 3' end of the tested compound. [moe] = 2'-O-(2-methoxyethyl) (MOE); [sp] = phosphorothioate linkage; [m5C] = 5-methylcytosine

target: ATXN2; assay: mouse, dose not given; conditions: ASO

Row | Substance | 3 h FOB score [score 0-7]
1 | RNA1{[moe](A)[sp].[moe](A)p.[moe](A)p.[moe](G)p.[moe](A)p.d([m5C])[sp].d(T)[sp].d(T)[sp].d(T)[sp].d(G)[sp].d(A)[sp].d(A)[sp].d(A)[sp].d(T)[sp].d([m5C])[sp].[moe](T)p.[moe]([m5C])p.[moe](A)[sp].[moe]([m5C])}$$$$ (last 3' nucleoside missing) | 1
2 | RNA1{[moe](A)[sp].[moe](A)p.[moe](G)p.[moe](A)p.[moe](A)p.d(T)[sp].d([m5C])[sp].d([m5C])[sp].d(T)[sp].d(T)[sp].d(A)[sp].d(G)[sp].d([m5C])[sp].d(A)[sp].d([m5C])[sp].[moe](T)p.[moe](T)p.[moe](G)[sp].[moe](G)}$$$$ (last 3' nucleoside missing) | 6.25
3 | RNA1{[moe](A)[sp].[moe](A)p.[moe](G)p.[moe](A)p.[moe](T)p.d(G)[sp].d(G)[sp].d(G)[sp].d(T)[sp].d(T)[sp].d(T)[sp].d(T)[sp].d(T)[sp].d(T)[sp].d(T)[sp].[moe](G)p.[moe]([m5C])p.[moe](T)[sp].[moe](T)}$$$$ (last 3' nucleoside missing) | 4
4 | RNA1{[moe](A)[sp].[moe](A)p.[moe](G)p.[moe](A)p.[moe]([m5C])p.d(T)[sp].d(T)[sp].d(T)[sp].d(T)[sp].d(T)[sp].d(A)[sp].d(T)[sp].d(G)[sp].d(T)[sp].d(T)[sp].[moe](G)p.[moe]([m5C])p.[moe](T)[sp].[moe]([m5C])}$$$$ (last 3' nucleoside missing) | 3.5
5 | RNA1{[moe](A)[sp].[moe](A)p.[moe](G)p.[moe](T)p.[moe](A)p.d(G)[sp].d(T)[sp].d(G)[sp].d(T)[sp].d(T)[sp].d(T)[sp].d(G)[sp].d(G)[sp].d(G)[sp].d(A)[sp].[moe](T)p.[moe](G)p.[moe]([m5C])[sp].[moe](T)}$$$$ (last 3' nucleoside missing) | 6
6 | RNA1{[moe](A)[sp].[moe](A)p.[moe](G)p.[moe](T)p.[moe](T)p.d([m5C])[sp].d([m5C])[sp].d([m5C])[sp].d(A)[sp].d(T)[sp].d(T)[sp].d(G)[sp].d([m5C])[sp].d(A)[sp].d(T)[sp].[moe](T)p.[moe](G)p.[moe](T)[sp].[moe](T)}$$$$ (last 3' nucleoside missing) | 6
7 | RNA1{[moe](A)[sp].[moe](A)p.[moe](G)p.[moe](T)p.[moe]([m5C])p.d(T)[sp].d(T)[sp].d(G)[sp].d(T)[sp].d(T)[sp].d([m5C])[sp].d(A)[sp].d(G)[sp].d(T)[sp].d(G)[sp].[moe](T)p.[moe]([m5C])p.[moe]([m5C])[sp].[moe](T)}$$$$ (last 3' nucleoside missing) | 4.5
8 | RNA1{[moe](A)[sp].[moe](A)p.[moe](G)p.[moe]([m5C])p.[moe](T)p.d(T)[sp].d(A)[sp].d(G)[sp].d(A)[sp].d(G)[sp].d(T)[sp].d(T)[sp].d(T)[sp].d(T)[sp].d(T)[sp].[moe](G)p.[moe]([m5C])p.[moe]([m5C])[sp].[moe](T)}$$$$ (last 3' nucleoside missing) | 4
9 | RNA1{[moe](A)[sp].[moe](A)p.[moe](T)p.[moe](A)p.[moe](G)p.d(G)[sp].d(G)[sp].d(T)[sp].d(T)[sp].d(T)[sp].d(T)[sp].d(G)[sp].d(T)[sp].d(T)[sp].d([m5C])[sp].[moe](A)p.[moe](T)p.[moe](G)[sp].[moe]([m5C])}$$$$ (last 3' nucleoside missing) | 3.75
10 | RNA1{[moe](A)[sp].[moe](A)p.[moe](T)p.[moe](A)p.[moe](T)p.d(T)[sp].d([m5C])[sp].d([m5C])[sp].d(A)[sp].d(T)[sp].d(A)[sp].d([m5C])[sp].d(A)[sp].d(G)[sp].d(A)[sp].[moe](T)p.[moe]([m5C])p.[moe](G)[sp].[moe]([m5C])}$$$$ (last 3' nucleoside missing) | 2.5
11 | RNA1{[moe](A)[sp].[moe](A)p.[moe](T)p.[moe](G)p.[moe]([m5C])p.d([m5C])[sp].d(G)[sp].d(T)[sp].d(T)[sp].d(T)[sp].d(T)[sp].d(T)[sp].d(A)[sp].d([m5C])[sp].d(T)[sp].[moe]([m5C])p.[moe](T)p.[moe]([m5C])[sp].[moe](A)}$$$$ (last 3' nucleoside missing) | 0
12 | RNA1{[moe](A)[sp].[moe](A)p.[moe]([m5C])p.[moe](A)p.[moe](G)p.d([m5C])[sp].d(T)[sp].d([m5C])[sp].d(T)[sp].d(G)[sp].d(T)[sp].d(T)[sp].d([m5C])[sp].d(G)[sp].d(A)[sp].[moe](T)p.[moe](G)p.[moe]([m5C])[sp].[moe](A)}$$$$ (last 3' nucleoside missing) | 6
13 | RNA1{[moe](A)[sp].[moe](A)p.[moe]([m5C])p.[moe](G)p.[moe](A)p.d(T)[sp].d(G)[sp].d(A)[sp].d(T)[sp].d([m5C])[sp].d(T)[sp].d(G)[sp].d(G)[sp].d(T)[sp].d(A)[sp].[moe](T)p.[moe]([m5C])p.[moe]([m5C])[sp].[moe](T)}$$$$ (last 3' nucleoside missing) | 7
14 | RNA1{[moe](A)[sp].[moe](A)p.[moe]([m5C])p.[moe](G)p.[moe](G)p.d(A)[sp].d(G)[sp].d(T)[sp].d([m5C])[sp].d(A)[sp].d([m5C])[sp].d(T)[sp].d(G)[sp].d(T)[sp].d(T)[sp].[moe](T)p.[moe](T)p.[moe](T)[sp].[moe]([m5C])}$$$$ (last 3' nucleoside missing) | 5.5
15 | RNA1{[moe](A)[sp].[moe](A)p.[moe]([m5C])p.[moe](T)p.[moe](G)p.d(G)[sp].d(A)[sp].d(T)[sp].d(T)[sp].d([m5C])[sp].d(T)[sp].d(G)[sp].d(T)[sp].d(A)[sp].d([m5C])[sp].[moe](T)p.[moe](T)p.[moe](T)[sp].[moe](T)}$$$$ (last 3' nucleoside missing) | 4.75
16 | RNA1{[moe](A)[sp].[moe](A)p.[moe]([m5C])p.[moe]([m5C])p.[moe](A)p.d(T)[sp].d(G)[sp].d([m5C])[sp].d([m5C])[sp].d(T)[sp].d([m5C])[sp].d(T)[sp].d(T)[sp].d(T)[sp].d(T)[sp].[moe](T)p.[moe](T)p.[moe]([m5C])[sp].[moe](T)}$$$$ (last 3' nucleoside missing) | 0
17 | RNA1{[moe](A)[sp].[moe](A)p.[moe]([m5C])p.[moe]([m5C])p.[moe](A)p.d([m5C])[sp].d(T)[sp].d(G)[sp].d(A)[sp].d(T)[sp].d(T)[sp].d(T)[sp].d(A)[sp].d(T)[sp].d(A)[sp].[moe]([m5C])p.[moe](A)p.[moe]([m5C])[sp].[moe](T)}$$$$ (last 3' nucleoside missing) | 2.5
18 | RNA1{[moe](A)[sp].[moe](G)p.[moe](A)p.[moe](G)p.[moe](T)p.d(T)[sp].d(T)[sp].d(T)[sp].d(T)[sp].d(G)[sp].d([m5C])[sp].d([m5C])[sp].d(T)[sp].d(T)[sp].d([m5C])[sp].[moe]([m5C])p.[moe](A)p.[moe](T)[sp].[moe](T)}$$$$ (last 3' nucleoside missing) | 3
19 | RNA1{[moe](A)[sp].[moe](G)p.[moe](G)p.[moe](G)p.[moe](T)p.d(T)[sp].d(A)[sp].d(A)[sp].d(T)[sp].d(T)[sp].d(A)[sp].d(G)[sp].d(G)[sp].d(A)[sp].d(T)[sp].[moe]([m5C])p.[moe](T)p.[moe](A)[sp].[moe](T)}$$$$ (last 3' nucleoside missing) | 6
